Data taken from patent US7947701B2, “Dual molecules containing peroxy derivative, the synthesis and therapeutic applications thereof” (Sanofi-Aventis, priority 2003, dated 2011).
Where two headings read alike, the source gives them in different places.

Legend:
[1] = system: P. falciparum FcM29-Cameroon strain; experiment: Antimalarial chemosensitivity test (radioactive micromethod, tritiated hypoxanthine incorporation) on FcM29-Cameroon strain; assay type: cell-based; conditions: Plasmodium falciparum, Erythrocyte, read-out: IC50 (concentration required to inhibit parasite growth by 50%)
Description: (§1) The P. falciparum strains are cultured continuously according to the method of Trager and Jensen (Science, 1976, 193, 673-675): the parasites are maintained in human red blood cells (O±), diluted to a blood parasite level of 2% in RPMI 1640 medium supplemented with 25 mM of Hepes+24 mM NaHCO3+2 mM L-glutamine and with 5% of human serum of all groups. The parasites are incubated at 37° C. in a humid atmosphere and at 5% CO2.
The antimalarial activity tests are carried out according to the radioactive micromethod of Desjardins et al. (Antimicrob. Agents Chemother., 1979, 16, 710-718). Each molecule is tested in triplicate. The assays are carried out in 96-well microplates. The P. falciparum strains are cultured in solutions of RPMI 1640 supplemented with 5% of human serum with a haematocrit at 2% and a blood parasite level at 1.5%. For each assay, the parasites are incubated with decreasing concentrations of the test compounds for 48 h at 37° C., in a humid atmosphere and at 5% CO2. Artemisinin and chloroquine diphosphate are used as reference molecules. The first dilution of the test compounds is effected at 1 mg/ml in dimethyl sulphoxide. The dilution range for the successive daughter solutions is also prepared in dimethyl sulphoxide. Each daughter dilution is then diluted to 1/50th in RPMI 1640 supplemented with 5% of human serum, all the dilutions being carried out at 37° C. These dilutions are then added to the parasites in culture in the microplates. After addition of the test compound, the parasites are cultured in RPMI 1640 containing 5% of human serum and 1% of dimethyl sulphoxide. The parasite growth is measured by incorporation of tritiated hypoxanthine (added 24 h after the beginning of exposure to the test compound) and compared to the incorporation in the absence of the test compound (taken as 100%). The IC50 values (concentrations required to inhibit parasite growth by 50%) are determined by plotting the percentage inhibition as a function of the logarithm of the dose, using the GraphPad Prism 4® processing software (GraphPad Software Inc., 5755 Oberlin Drive, #110, San Diego, Calif. 92121, USA).

[2] = system: P. falciparum FcB1-Columbia strain; experiment: Antimalarial chemosensitivity test (radioactive micromethod, tritiated hypoxanthine incorporation) on FcB1-Columbia strain; assay type: cell-based; conditions: Plasmodium falciparum, read-out: IC50 (concentration required to inhibit parasite growth by 50%)
Description: as §1
The antimalarial activity tests are carried out according to the radioactive micromethod of Desjardins et al. (Antimicrob. Agents Chemother., 1979, 16, 710-718). Each molecule is tested in triplicate. The assays are carried out in 96-well microplates. The P. falciparum strains are cultured in solutions of RPMI 1640 supplemented with 5% of human serum with a haematocrit at 2% and a blood parasite level at 1.5%. For each assay, the parasites are incubated with decreasing concentrations of the test compounds for 48 h at 37° C., in a humid atmosphere and at 5% CO2. Artemisinin and chloroquine diphosphate are used as reference molecules. The first dilution of the test compounds is effected at 1 mg/ml in dimethyl sulphoxide. […] The parasite growth is measured by incorporation of tritiated hypoxanthine (added 24 h after the beginning of exposure to the test compound) and compared to the incorporation in the absence of the test compound (taken as 100%). […]

IC50 ([2]; Erythrocyte, FcB1-Columbia strain (moderately chloroquine resistant), in human red blood cells, 48 h incubation)	IC50 ([1]; FcM29-Cameroon strain (very strongly chloroquine resistant), in human red blood cells, 48 h incubation)	SMILES	IC50 ([1]; 48 h)	IC50 ([2]; FCB1, Erythrocyte, 48 h)
–	–	CC(C)C1=C[C@H]2OC3(CCN(CCCNc4ccnc5cc(Cl)ccc45)CC3)OO[C@@]2(C)CC1 [PA1011]	13 nM	–
–	–	Clc1ccc2c(NCCN3CCC4(CC3)OOC3(O4)C4CC5CC(C4)CC3C5)ccnc2c1 (stereo not shown) [PA1021, 7-Chloro-N-[2-(1H-dispiro[piperidine-4,3′-[1,2,4]trioxolane-5′,2″-tricyclo[3.3.1.1^3,7]decan]-1-yl)ethyl]quinolin-4-amine]	6 nM	–
–	–	CN(C)c1ccc2nccc(NCCN3CCC4(CC3)OOC3(O4)C4CC5CC(C4)CC3C5)c2c1 (stereo not shown) [PA1026, N^4-[2-(1H-Dispiro[piperidine-4,3,-[1,2,4]trioxolane-5′,2″-tricyclo[3.3.1.1^3,7]decan]-1-yl)ethyl]-N^6,N^6-dimethylquinoline-4,6-diamine]	4.4 nM	–
11 nM	5 nM	C[C@@H]1CC[C@H]2[C@@H](C)C(=O)O[C@@H]3O[C@@]4(C)CC[C@@H]1[C@]32OO4 [artemisinin]	–	–
–	–	CCN(CC)CCCC(C)Nc1ccnc2cc(Cl)ccc12 (stereo not shown) [chloroquine]	258 nM	66 nM
